Reference: patent publication US8338472B2, “Hexahydrocyclopentyl[F]indazole carboxamides and derivatives thereof as selective glucocorticoid receptor modulators” (Merck Sharp & Dohme Corp., priority 2008, dated 2012)
Where two headings read alike, the source gives them in different places.

Key:
[1] = target: T1, Glucocorticoid Receptor (Homo sapiens, UniProt P04150); test: Trans-Activation Modulation of Glucocorticoid Receptor (GRAMMER), MMTV-LUC reporter gene in A549 cells; assay type: cell-based; settings: Table 1; for Emax: A549, A549 cells, Emax relative to 300 nM dexamethasone, read-out: Transactivation A549 Cells GRAMMER Emax; for EC50: inflection point, A549 cells, read-out: Transactivation A549 Cells GRAMMER IP
T1 construct: These cells express large amount of the GR and are very responsive to GC treatment; endogenous in cells; host or cells: A549 cells transiently transfected with the MMTV-LUC reporter
T1 sequence (P04150 1-777): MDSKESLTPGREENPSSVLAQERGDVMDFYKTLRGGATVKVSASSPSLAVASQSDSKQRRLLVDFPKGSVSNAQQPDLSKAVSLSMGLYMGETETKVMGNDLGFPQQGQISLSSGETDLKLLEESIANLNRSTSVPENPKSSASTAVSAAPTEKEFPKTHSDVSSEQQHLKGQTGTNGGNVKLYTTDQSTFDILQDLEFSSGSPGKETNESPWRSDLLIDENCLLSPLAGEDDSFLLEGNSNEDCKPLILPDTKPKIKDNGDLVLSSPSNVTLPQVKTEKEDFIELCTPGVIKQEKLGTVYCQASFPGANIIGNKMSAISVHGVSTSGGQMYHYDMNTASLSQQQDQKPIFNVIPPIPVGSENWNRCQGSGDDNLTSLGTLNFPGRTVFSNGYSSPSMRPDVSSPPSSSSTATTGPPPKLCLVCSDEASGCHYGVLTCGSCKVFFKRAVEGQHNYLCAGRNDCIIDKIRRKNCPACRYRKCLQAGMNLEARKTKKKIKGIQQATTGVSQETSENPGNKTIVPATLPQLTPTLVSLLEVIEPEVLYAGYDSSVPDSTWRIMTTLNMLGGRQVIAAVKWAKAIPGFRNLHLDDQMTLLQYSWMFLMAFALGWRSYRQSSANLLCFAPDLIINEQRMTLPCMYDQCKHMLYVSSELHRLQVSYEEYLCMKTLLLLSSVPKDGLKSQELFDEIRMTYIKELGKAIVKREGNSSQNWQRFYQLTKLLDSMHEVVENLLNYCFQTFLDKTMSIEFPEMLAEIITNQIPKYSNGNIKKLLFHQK
How it was run: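 Luciferase from a transiently transfected MMTV-LUC reporter was measured after 24 h compound exposure (≤1% DMSO) in A549 or MDA-MB-453 cells. For antagonism, the decrease of 10 nM dexamethasone-induced signal was calculated. For agonism, Emax was referenced to 300 nM dexamethasone.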

[2] = target: T2, human GR (Homo sapiens, UniProt P04150); test: Transrepression Assay (GITAR), TNFα-β-lactamase reporter gene in U937 cells; assay type: cell-based; settings: for GITAR Greater than by GRAMMER % SEP: GITAR Emax minus GRAMMER Emax; for EC50: inflection point, U937 cells, read-out: Transrepression U937 Cells GITAR IP
T2 construct: U937 cells contain an endogenous glucocorticoid receptor (GR); endogenous in cells; host or cells: U937 cells stably transfected with the TNF-alpha promoter/beta-lactamase reporter
T2 sequence (P04150 1-777): T1 sequence (P04150 1-777)
How it was run: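 Repression of PMA (5 ng/ml final)/LPS (100 ng/ml final)-induced TNF-α promoter activity, read as β-lactamase cleavage of CCF2-AM, in stably transfected U937 cells expressing native GR. Compound added 30-45 min before stimulation, overnight (~18 hr) 37° C; normalized to 100 nM dexamethasone (100%).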

[3] = target: T3, glucocorticoid receptor (GR) (Homo sapiens, UniProt P04150); test: Ligand binding assay (GR BIND), 3H-dexamethasone displacement in MDA-MB-453 cell lysate; settings: GR BIND Ki, Table 1
T3 sequence (P04150 1-777): T1 sequence (P04150 1-777)
Method: Binding Buffer: TEGM (10 mM Tris-HCl, 1 mM EDTA, 10% glycerol, 1 mM beta-mecaptoethanol, 10 mM Sodium Molybdate, pH 7.2)
50% HAP Slurry: Calbiochem Hydroxylapatite, Fast Flow, in 10 mM Tris, pH 8.0 and 1 mM EDTA.
Wash Buffer: 40 mM Tris, pH7.5, 100 mM KCl, 1 mM EDTA and 1 mM EGTA.
Dexmethasone-methyl-^3H, (DEX*); (Amersham cat# TRK645)
Dexamethasone(DEX) (Sigma, cat# D1756):
The cell pellet is washed twice with TEGM (10 mM Tris-HCl, 1 mM EDTA, 10% glycerol, 1 mM beta-mercaptoethanol, 10 mM Sodium Molybdate, pH 7.2). After the final wash, the cells are resuspended in TEGM at a concentration of 10^7 cells/mL. The cell suspension is snap frozen in liquid nitrogen or ethanol/dry ice bath and transferred to −80° C. freezer on dry ice. Before setting up the binding assay, the frozen samples are left on ice-water to just thaw (˜1 hr). Then the samples are centrifuged at 12,500 g to 20,000 g for 30 min at 4° C. The supernatant is used to set-up assay right away. If using 50 μL of supernatant, the test compound can be prepared in 50 μL of the TEGM buffer.
Procedure for Multiple Compound Screening
1×TEGM buffer is prepared, and the isotope-containing assay mixture is prepared in the following order: EtOH (2% final concentration in reaction), ^3H-DEX (Amersham Biosciences) and 1×TEGM. [e.g. For 100 samples, 200 μL (100×2) of EtOH+4.25 μL of 1:10 ^3H-Dex stock+2300 μL (100×23) 1×TEGM]. The compound is serially diluted, e.g., if starting final conc. is 1 μM, and the compound is in 25 μL of solution, for duplicate samples, 75 μL of 4×1 μM solution is made and 3 μL of 100 μM is added to 72 μL of buffer, and 1:5 serial dilution.
25 μL of ^3H-DEX (6 nM) trace and 25 μL compound solution are first mixed together, followed by addition of 50 μL receptor solution. The reaction is gently mixed, spun briefly at about 200 rpm and incubated at 4° C. overnight. 100 μL of 50% HAP slurry is prepared and added to the incubated reaction which is then vortexed and incubated on ice for 5 to 10 minutes. The reaction mixture is vortexed twice more to resuspend HAP while incubating reaction. The samples in 96-well format are then washed in wash buffer using The FilterMate™ Universal Harvester plate washer (Packard). The washing process transfers HAP pellet containing ligand-bound expressed receptor to Unifilter-96 GF/B filter plate (Packard). The HAP pellet on the filter plate is incubated with 50 μL of MICROSCINT (Packard) scintillint for 30 minutes before being counted on the TopCount microscintillation counter (Packard). IC50s are calculated using DEX as a reference.

[4] = U-937, U937 cells, activity repressed by 100 nM dexamethasone = 100%, Table 1, read-out: Transrepression U937 Cells GITAR Emax
[5] = U-937, text statement, 100 nM dexamethasone = 100%, read-out: maximal activity in the transrepression assay (GITAR)

SMILES	Emax [1]	EC50 [1]	GITAR Greater than by GRAMMER % SEP ([2]; Table 1)	Emax [2, 4]	Emax [2, 5]	EC50 ([2]; Table 1)	Ki [3]
COC[C@H]1CCCN1C(=O)[C@H]1CCC2=Cc3c(cnn3-c3ccc(F)cc3)C[C@@]21C [Compound 43, (4αR,5S)-1-(4-fluorophenyl)-5-{[(2R)-2-(methoxymethyl)pyrrolidin-1-yl]carbonyl}-4α-methyl-1,4,4α,5,6,7-hexahydrocyclopenta[f]indazole]	1.5%	5000 nM	19.5%	21%	> 5%	385 nM	49.8 nM
CN(C(=O)[C@H]1CCC2=Cc3c(cnn3-c3ccc(F)cc3)C[C@@]21C)C1CCCCC1 [Compound 44, (4αR,5S)-N-cyclohexyl-1-(4-fluorophenyl)-N,4α-dimethyl-1,4,4α,5,6,7-hexahydrocyclopenta[f]indazole-5-carboxamide]	3.2%	398 nM	35.3%	38.5%	> 5%	1810 nM	23.2 nM
COCCN(Cc1ccc(OC)cc1)C(=O)[C@H]1CCC2=Cc3c(cnn3-c3ccc(F)cc3)C[C@@]21C [Compound 45, (4αR,5S)-1-(4-fluorophenyl)-N-(4-methoxybenzyl)-N-(2-methoxyethyl)-4α-methyl-1,4,4α,5,6,7-hexahydrocyclopenta[f]indazole-5-carboxamide]	2.2%	2140 nM	17.1%	19.3%	> 5%	158 nM	8.7 nM
CN(Cc1cccc(C(F)(F)F)c1)C(=O)[C@H]1CCC2=Cc3c(cnn3-c3ccc(F)cc3)C[C@@]21C [Compound 46, (4αR,5S)-1-(4-fluorophenyl)-N,4α-dimethyl-N-[3-(trifluoromethyl)benzyl]-1,4,4α,5 ,6,7-hexahydrocyclopenta[f]indazole-5-carboxamide]	2.6%	2410 nM	12.7%	15.3%	> 5%	87.4 nM	17.6 nM
COc1cccc(CN(C)C(=O)[C@H]2CCC3=Cc4c(cnn4-c4ccc(F)cc4)C[C@@]32C)c1 [Compound 47, (4αR,5S)-1-(4-fluorophenyl)-N-(3-methoxybenzyl)-N,4α-dimethyl-1,4,4α,5,6,7-hexahydrocyclopenta[f]indazole-5-carboxamide]	7.4%	2020 nM	20.4%	27.8%	> 5%	1690 nM	7.1 nM
CN(CCOc1ccccc1)C(=O)[C@H]1CCC2=Cc3c(cnn3-c3ccc(F)cc3)C[C@@]21C [Compound 48, (4αR,5S)-1-(4-fluorophenyl)-N,4α-dimethyl-N-(2-phenoxyethyl)-1,4,4α,5,6,7-hexahydrocyclopenta[f] indazole-5-carboxamide]	2.7%	1390 nM	20.0%	22.8%	> 5%	410 nM	7 nM
C[C@]12Cc3cnn(-c4ccc(F)cc4)c3C=C1CC[C@@H]2C(=O)N(CCc1ccccc1)Cc1ccccc1 [Compound 49, (4αR,5S)-N-benzyl-1-(4-fluorophenyl)-4α-methyl-N-(2-phenylethyl)-1,4,4,5,6,7-hexahydrocyclopenta[f]indazole-5-carboxamide]	1.5%	260 nM	10.1%	11.6%	> 5%	145 nM	1.9 nM
COc1ccccc1CN(C)C(=O)[C@H]1CCC2=Cc3c(cnn3-c3ccc(F)cc3)C[C@@]21C [Compound 50, (4αR,5S)-1-{4-fluorophenyl)-N-(2-methoxybenzyl)-N,4α-dimethyl-hexahydrocyclopenta[f]indazole-5-carboxamide]	3.4%	1460 nM	16.9%	20.3%	> 5%	226 nM	9 nM
C[C@]12Cc3cnn(-c4ccc(F)cc4)c3C=C1CC[C@@H]2C(=O)N1CCC(S(=O)(=O)c2ccccc2)CC1 [Compound 51, (4αR,5S)-1-(4-fluorophenyl)-4α-methyl-5-{[4-(phenylsulfonyl)piperidin-1-yl]carbonyl}1,4,4α,5,6,7-hexahydrocyclopenta[f]indazole]	2.9%	1190 nM	32.2%	35.1%	> 5%	1380 nM	39.5 nM
CCN(Cc1ccccc1)C(=O)[C@H]1CCC2=Cc3c(cnn3-c3ccc(F)cc3)C[C@@]21C [Compound 52, (4αR,5S}-N-benzyl-N-ethyl-1-(4-fluorophenyl)-4α-methyl-1,4,4α,5,6,7-hexahydrocyclopenta[f]indazole-5-carboxamide]	11.6%	1710 nM	21.7%	33.2%	> 5%	971 nM	2.6 nM

Next, values leading:

Emax [1]	EC50 [1]	GITAR Greater than by GRAMMER % SEP ([2]; Table 1)	Emax [2, 4]	Emax [2, 5]	EC50 ([2]; Table 1)	Ki [3]	SMILES
18.3%	2290 nM	40.2%	58.4%	> 5%	2250 nM	37.4 nM	CC1CC(C)CN(C(=O)[C@H]2CCC3=Cc4c(cnn4-c4ccc(F)cc4)C[C@@]32C)C1 (stereo partly drawn) [Compound 53, (4αR,5S)-5-[(3,5-dimethylpiperidin-1-yl)carbonyl]-1-(4-fluorophenyl)-4α-methyl-1,4,4α,5,6,7-hexahydrocyclopenta[f]indazole]
3.1%	1250 nM	37.4%	40.5%	> 5%	2210 nM	32.1 nM	CC(C)CN(C)C(=O)[C@H]1CCC2=Cc3c(cnn3-c3ccc(F)cc3)C[C@@]21C [Compound 54, (4αR,5S)-1-(4-fluorophenyl)-N-isobutyl-N,4α-dimethyl-1,4,4α,5,6,7-hexahydrocyclopenta[f]indazole-5-carboxamide]
1.6%	5000 nM	22.3%	23.9%	> 5%	3950 nM	53.5 nM	CCN(CC)C(=O)[C@H]1CCC2=Cc3c(cnn3-c3ccc(F)cc3)C[C@@]21C [Compound 55, (4αR,5S)-N,N-diethyl-1-(4-fluorophenyl)-4α-methyl-1,4,4α,5,6,7-hexahydrocyclopenta[f]indazole-5-carboxamide]
44.1%	430 nM	24.0%	68.1%	> 5%	595 nM	2.5 nM	CCCCN(CCC)C(=O)[C@H]1CCC2=Cc3c(cnn3-c3ccc(F)cc3)C[C@@]21C [Compound 56, (4αR,5S)-N-butyl-1-{4-fluorophenyl)-4α-methyl-N-propyl-1,4,4α,5,6,7-hexahydrocyclopenta[f]indazole-5-carboxamide]
71.5%	227 nM	15.3%	86.8%	> 5%	122 nM	7.3 nM	CC(C)CN(CC(O)C(F)(F)F)C(=O)[C@H]1CCC2=Cc3c(cnn3-c3ccc(F)cc3)C[C@@]21C (stereo partly drawn) [Compound 58, (4αR,5S)-1-(4-fluorophenyl)-N-isobutyl-4α-methyl-N-(3,3,3-trifluoro-2-hydroxypropyl)-1,4,4α,5,6,7-hexahydrocyclopenta[f]indazole-5-carboxamide]
